According to patent US9222118B2 (priority 2008, dated 2015):
Entries after “also recorded” stand apart in the source; their conditions may differ. Where a name gives a salt, the structure may show the parent alone.

Columns and labels:
Ebolavirus minigenome = type: cell-based
VSVΔG*-Ebolavirus GP = type: cell-based; conditions: 10 μM
EbolaΔVP30-GFP = type: cell-based, Zaire ebolavirus
adenovirus Ad-5 = type: cell-based
in vitro = conditions: green monkey
EbolaΔVP30-GFP virus = test: microbe, parasite or virus in culture; type: cell-based, Zaire ebolavirus; conditions: Zaire ebolavirus
VeroVP30 cells = conditions: green monkey
vaccinia virus = type: cell-based
[1] = tested on: Vesicular stomatitis virus (VSV) strain Indiana; type: cell-based
VSV = type: cell-based
[2] = tested on: VSV pseudotyped with GPs of all known subtypes of Ebolavirus (Zaire, Reston, Sudan, Ivory Coast); type: cell-based
influenza virus = type: cell-based
[3] = tested on: VSV pseudotyped with Ebola GP glycoprotein; type: cell-based, Ebolavirus
[4] = tested on: phosphoinositide-3 (PI3) kinase-Akt pathway; type: cell-based
[5] = tested on: VSV pseudotyped with the GP protein of Marburgvirus; type: cell-based

Structure (SMILES) | % luc activity from the Ebolavirus minigenome (Ebolavirus minigenome) | Infectivities of VSVΔG*-Ebolavirus GP standardized by the infectivities of VSVΔG*-VSV G (VSVΔG*-Ebolavirus GP) [%] | reduction of EbolaΔVP30 virus growth (EbolaΔVP30-GFP) [%] | effect on protein expression from the Ebolavirus minigenome (Ebolavirus minigenome) | inhibition of adenovirus growth (adenovirus Ad-5) | CC50 (in vitro) [µM] | IC50 (EbolaΔVP30-GFP virus) [nM] | inhibition at 5 µM (EbolaΔVP30-GFP virus; read-out: % GFP inhibition) [%] | inhibition of EbolaΔVP30-GFP growth (EbolaΔVP30-GFP) | % cell viability (VeroVP30 cells) [%] | inhibition of vaccinia virus growth (vaccinia virus) | inhibition of VSV growth [1] | effect on growth of VSV (VSV) | reduction of titers of pseudotyped viruses [2] | effect on growth of influenza virus (influenza virus) | infection of VSV pseudotyped with Ebola GP bound to cell surfaces [3] | inhibition of the PI3 kinase-Akt pathway [4] | reduction of virus titers [5]
COC1=C2C[C@@H](C)C[C@H](OC)[C@H](O)[C@@H](C)/C=C(\C)[C@H](OC(N)=O)[C@@H](OC)/C=C\C=C(/C)C(=O)NC(=CC1=O)C2=O [GM, geldanamycin] | 24.7%±7.7% | 137 | 30 | – | – | – | – | – | – | – | – | – | – | – | – | – | – | –
CC(=O)O[C@@H]1C[C@H]2C(C)(C)C(=O)C=C[C@]2(C)[C@H]2CC[C@@]3(C)[C@H](c4ccoc4)OC(=O)[C@H]4O[C@]43[C@@]21C [Gedunin] | 1.3%±0.2% | – | – | inhibit protein expression from the Ebolavirus minigenome | slightly inhibitory; also recorded: slightly delay the propagation | > 10 | 330 | 102 | completely inhibited | 77 | slightly delay the propagation | slightly delay the propagation | – | – | – | – | – | –
CN1C2CCC1CC(OC(c1ccccc1)c1ccccc1)C2 (stereo not shown) [benztropine mesylate] | – | – | – | – | – | – | – | – | – | – | – | – | does not affect the growth | 98-99% | does not affect the growth | inhibit infection | did not inhibit | about 75%
